Measured values reported in patent US7572798B2, “Combi-molecules having signal transduction inhibitory properties and DNA damaging properties” (McGill University, priority 2001, dated 2009).
Entries after “also recorded” stand apart in the source; their conditions may differ.

Assays:
A431 cells = test: Alkaline comet assay for DNA damage in A431 cells; details: A431, 30 min or 2 h exposure
Procedure: A431 cells were exposed to drugs for 30 min or 2 h, and harvested with trypsin-EDTA. The cells were subsequently collected by centrifugation and re-suspended in PBS. The resulting cell suspension was diluted to approximately 10^6 cells, and mixed with agarose (1%) in PBS at 37° C. in a 1:10 dilution. The gels were cast on Gelbond strips (Mandel Scientific, Guelph, Canada) using gel casting chambers, as previously described (32), then immediately placed into a lysis buffer [2.5 M NaCl, 0.1 M tetra-sodium EDTA, 10 mM tris-base, 1% (w/v) N-lauryl sarcosine, 10% (v/v) DMSO and 1% (v/v) Triton X-100]. After being kept on ice for 30 min, the gels were gently rinsed with distilled water and then immersed in a second lysis buffer [2.5 M NaCl, 0.1 M tetra-sodium EDTA, 10 mM tris-base], containing 1 mg/ml proteinase K for 60 min at 37° C. Thereafter, the gels were rinsed with distilled water, incubated in alkaline electrophoresis buffer for 30 min at 37° C., and electrophoresed at 300 mA for 60 min. The gels were subsequently rinsed with distilled water and placed into 1 M ammonium acetate for 30 min. They were further soaked in 100% ethanol for 2 h, dried overnight and subsequently stained with SYBR Gold ( 1/10000 dilution of stock supplied from Molecular Probes, OR) for 20 min. For evaluation of comets, DNA damage was assessed using the Tail Moment parameter (i.e. the product of the distance between the barycentres of the head and the tail of the comet. A minimum of 50 cell comets were analyzed for each sample using ALKOMET v3.1 software, and values are an average of tail moments for the entire cell population.
Cell suspensions were diluted to approximately 10^6 cells, and mixed with agarose (1%) in PBS at 37° C. in a 1:10 dilution. The gels were cast on Gelbond strips (Mandel Scientific, Guelph, Canada) using gel casting chambers, as previously described (31), and then immediately placed in a lysis buffer [2.5 M NaCl, 0.1 M tetra-sodium EDTA, 10 mM Tris-base, 1% (w/v) N-lauryl sarcosine, 10% (v/v) DMSO, and 1% (v/v) Triton X-100, pH 10.0]. After being kept on ice for 30 min, the gels were gently rinsed with distilled water and immersed in a second lysis buffer (2.5 M NaCl, 0.1 M tetrasodium EDTA, 10 mM Tris-base) containing 1 mg/ml proteinase K for 60 min at 37° C. Thereafter, the gels were rinsed with distilled water, incubated in alkaline electrophoresis buffer for 30 min at 37° C., and electrophoresed at 300 mA for 60 min. The gels were subsequently rinsed with distilled water and placed in 1 M ammonium acetate for 30 min. They were soaked in 100% ethanol for 2 h, dried overnight, and subsequently stained with SYBR Gold ( 1/10000 dilution of stock supplied from Molecular Probes, Eugene, Oreg.) for 20 min. Comets were visualized at 330× magnification and DNA damage was quantitated using the Tail Moment parameter (i.e., the distance between the barycenter of the head and the tail of the comet multiplied by the percentage of DNA within the tail of the comet). A minimum of 50 cell comets were analyzed for each sample, using ALKOMET version 3.1 image analysis software, and values are averages of tail moments for the entire cell population per sample.

[1] = target: T1, cytoplasmic domain of the insulin receptor β subunit (Homo sapiens, UniProt P06213); test: insulin receptor kinase ELISA; assay type: biochemical; details: 1-100 μM range
T1 construct: Baculovirus-expressed cytoplasmic domain of the insulin receptor β subunit; purchased Biomol Research laboratories Inc., USA; host or cells: Baculovirus expression
Procedure: Conditions for the c-src and insulin kinase assays were similar to those of the EGFR kinase assay, with the exception of the addition of 1 mM manganese chloride to the assay buffer, and a final ATP concentration of 100 μM. The reaction was terminated by the addition of 50 μl of a 250 mM solution of EDTA prior to aspiration.

[2] = target: T2, HER2 (erbB2) gene product p185neu (Homo sapiens, UniProt P04626); test: Heregulin-stimulated phosphorylation of p185neu in MDA-MB453 cells; assay type: cell-based
T2 construct: heregulin (HRG)-stimulated phosphorylation of the HER2 (erbB2) gene product; endogenous in cells

[3] = Degradation in serum-containing cell culture medium (UV, HPLC); assay type: in vitro ADME; details: bovine, 37° C.
Procedure: Thereafter, proteins were precipitated by the addition of acetonitrile (3.5 ml) and the supernatant collected by centrifugation. […] The operating mode was isocratic and two solutions, “A” (50% acetonitrile) and “B” (50% water), were used with a 0.5 ml/min flow rate and a 5 μL injection volume. […] For the rapid quantitation of metabolite, a less polar acetonitrile-water (70:30) eluent was used.
The half-life was estimated by a one-phase exponential decay curve-fit method using the GraphPad software package (GraphPad Software, Inc., San Diego, Calif.).
The half-life of BJ2000 under physiological conditions was studied by UV-spectrophotometry. BJ2000 was dissolved in a minimum volume of DMSO, diluted with RPMI-1640 supplemented with 10% FBS, and absorbencies read at 340 nm in a UV cell maintained at 37° C. with a circulating water bath. The half-life was estimated by a one-phase exponential decay curve-fit method, using the GraphPad software package (GraphPad software, Inc., San Diego, Calif., USA).
Proteins were thereafter precipitated by the addition of acetonitrile (3.5 ml), and the supernatant collected by centrifugation. […] HPLC analyses were performed on a Hewlett Packard 1090 liquid chromatograph, using a Waters C4 15-μm 300×3.9-mm reverse phase column to characterize and quantitate the products resulting from the degradation of BJ2000. […] The peaks were detected at 250 nm.

T2 sequence (P04626 23-1255): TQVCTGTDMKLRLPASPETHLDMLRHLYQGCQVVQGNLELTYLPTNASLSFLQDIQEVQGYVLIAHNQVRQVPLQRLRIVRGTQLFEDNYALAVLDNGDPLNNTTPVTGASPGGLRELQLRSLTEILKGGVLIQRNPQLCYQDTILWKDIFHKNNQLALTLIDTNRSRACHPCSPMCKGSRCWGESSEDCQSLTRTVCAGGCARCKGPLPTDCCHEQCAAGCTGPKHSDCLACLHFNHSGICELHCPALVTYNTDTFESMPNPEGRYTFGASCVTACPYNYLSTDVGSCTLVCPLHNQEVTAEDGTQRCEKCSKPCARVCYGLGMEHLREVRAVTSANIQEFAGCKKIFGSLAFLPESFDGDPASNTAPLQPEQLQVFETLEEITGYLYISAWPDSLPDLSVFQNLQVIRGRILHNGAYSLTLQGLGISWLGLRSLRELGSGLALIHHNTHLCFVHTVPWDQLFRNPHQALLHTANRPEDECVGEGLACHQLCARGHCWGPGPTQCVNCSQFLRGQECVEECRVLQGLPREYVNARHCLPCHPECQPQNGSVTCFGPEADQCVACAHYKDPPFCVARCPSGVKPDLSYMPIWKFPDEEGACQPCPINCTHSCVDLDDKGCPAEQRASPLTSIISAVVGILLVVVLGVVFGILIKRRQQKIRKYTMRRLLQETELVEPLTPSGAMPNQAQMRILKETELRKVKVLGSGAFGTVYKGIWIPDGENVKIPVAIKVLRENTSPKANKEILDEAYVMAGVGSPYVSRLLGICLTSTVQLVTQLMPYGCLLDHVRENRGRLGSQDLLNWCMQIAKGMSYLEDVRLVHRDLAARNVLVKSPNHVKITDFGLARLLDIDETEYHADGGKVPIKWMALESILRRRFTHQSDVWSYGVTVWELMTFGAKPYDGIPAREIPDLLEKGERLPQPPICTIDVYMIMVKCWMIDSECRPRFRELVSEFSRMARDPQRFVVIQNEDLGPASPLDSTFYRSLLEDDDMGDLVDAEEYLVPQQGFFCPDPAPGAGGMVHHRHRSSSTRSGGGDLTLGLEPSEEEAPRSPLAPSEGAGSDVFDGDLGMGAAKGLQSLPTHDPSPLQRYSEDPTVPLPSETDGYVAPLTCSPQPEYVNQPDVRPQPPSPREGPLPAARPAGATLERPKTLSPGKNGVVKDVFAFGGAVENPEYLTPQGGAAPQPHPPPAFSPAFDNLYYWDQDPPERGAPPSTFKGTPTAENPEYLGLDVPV
T1 sequence (P06213 980-1382 limits assumed): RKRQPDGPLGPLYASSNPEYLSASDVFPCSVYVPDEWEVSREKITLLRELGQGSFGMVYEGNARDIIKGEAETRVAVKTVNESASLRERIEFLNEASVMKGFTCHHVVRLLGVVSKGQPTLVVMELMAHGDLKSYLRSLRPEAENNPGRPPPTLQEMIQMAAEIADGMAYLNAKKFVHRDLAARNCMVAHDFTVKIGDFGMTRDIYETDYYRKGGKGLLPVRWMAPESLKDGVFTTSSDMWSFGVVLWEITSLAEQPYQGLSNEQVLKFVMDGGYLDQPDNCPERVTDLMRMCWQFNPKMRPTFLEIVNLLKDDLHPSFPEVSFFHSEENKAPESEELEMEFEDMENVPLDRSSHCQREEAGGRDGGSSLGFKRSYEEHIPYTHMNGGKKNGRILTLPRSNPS

Compound: CNN=Nc1ccc2ncnc(Nc3cccc(Cl)c3)c2c1 [BJ2000]
- DNA damage (comet tail moment) (A431 cells): induced dose-dependent DNA damage; also recorded: induced significant DNA damage
- effect on insulin receptor TK [1]: nor did it exert any effect on insulin receptor TK
- effect on heregulin (HRG)-stimulated phosphorylation of p185neu [2]: able to block
- half-life ([3]; serum-containing cell culture medium (RPMI with 10% serum), RPMI with 10% serum, read-out: half-life (t1/2) by UV spectrophotometry at 340 nm): 34 min
- half-life at 625 µM ([3]; RPMI-1640 with 10% FBS, read-out: half-life (t1/2) by HPLC analysis): 75 min
